For 23 compounds, Ki and ED50 results are on record in patent publication US4753951A, “Condensed imidazopyridine derivatives useful as psychotropic agents” (Shionogi & Co., Ltd., priority 1985, dated 1988).

In assay [1] the target is benzodiazepine receptor. Kind of assay: Binding Test to Benzodiazepine Receptor (inhibition of tritium labeled diazepam binding). On the set-up: species or system Wistar rats. Conditions: 2nM tritium labeled diazepam; rat cerebral cortex; 0° C., 6 minutes; calculated from IC50. The protocol:
Binding Test to Benzodiazepine Receptor
This test was carried out in the modified mehtod of Mohler et al. Science, 198, 849-851 (1977).
Receptor preparation was provided from the cerebral cortex of Wistar rats (male, 11 to 13 weeks age). Inhibitory action of the test compound on the specific binding of tritium labeled diazepam to the receptor was evaluated as follows. 2nM tritium labeled diazepam and an aqueous solution of the test compound at 5 or 6 concentrations were incubated with the receptor preparation at 0° C. for 6 minutes. The 50% inhibitory concentration (IC50) was measured by the concentration-response curve.
The inhibitory constant (Ki) was calculated according to the following equation, in which Kd is the dissociation constant of the tritium labeled diazepam and L is the concentration of the labeled ligand.

In assay [2] the test system is Pentyleneterazole-Induced Convulsion. Kind of assay: Antagonism of Pentyleneterazole-Induced Convulsion (agonistic activity). The format is in vivo, male mice. The conditions noted are these: Mus musculus; intravenous; mice; pentylenetetrazole 125 mg/kg, s.c.; 2-h observation; probit; read-out: ED50 (prevention of tonic convulsion and death). As to the method: Antagonism of Pentyleneterazole-Induced Convulsion
Agonistic activity was evaluated in this test. Groups of 8-16 male mice were challenged with a dose of 125 mg/kg, s.c. of pentylenetetrazole immediately after intravenous injection of the test compound. The dose required to prevent tonic convulsion and death in 50% of the animal during a 2-h observation period was calculated by the probit method.

Assay [3] relates to Pentylenetetrazole-Induced Convulsion. As to the kind of experiment: Potentiation of Pentylenetetrazole-Induced Convulsion (inverse agonist activity). The format is in vivo. Conditions: Mus musculus; intravenous; mice; pentylenetetrazole 90 mg/kg s.c. (subconvulsive); 2-h observation; probit; read-out: ED50 (production of tonic convulsion and death). The protocol: Potentiation of Pentylenetetrazole-Induced Convulsion
Inverse agonist activity was evaluated in this test. Groups of 8-16 mice were challenged with a dose of 90 mg/kg. s.c. of pentylenetetrazole (a subconvulsive dose) immidiately after intravenous injection of the test compound. The dose required to produce tonic convulsion and death in 50% of the animals during a 2-h observation period was calculated by the probit method.

In assay [4] the test system is conflict behavior. Kind of assay: Anticonflict Test. The conditions noted are these: Rattus norvegicus; oral; male Wistar rats; 1 hour observation starting 30 minutes after administration; probit; read-out: Anti-conflict activity ED50. The format is in vivo. As to the method:
The modified method of Geller and Seifter (Psychopharmacol, 1, 482, 1960) was employed. Groups of 5 or more male Wistar rats with well-established conflict behavior were used. A dose was determined as positive when the numbuer of electric shocks (punishment) exceeded more than 12 during a 1 hour observation period starting 30 minutes after oral administration of the test compound. The ED50 was calculated by the probit method.

For assay [5], the system named is mice gripping the wire with hindpaws. Kind of assay: Traction Test. The format is in vivo. Conditions: Mus musculus, 0.5 h, read-out: Traction Test ED50. As to the method:
The modified method of Courvoisier et al. (in "Psychotropic Drugs", ed. by S. Garattini & R. Ducrot. p 373. Elsevier Publishing Co., Amsterdam, 1957) was employed. Groups of 10 mice were made to hang onto a horizontal metal wire (diameter: 1 mm) by grasping and holding with their forepaws 30 minutes after oral administration of the test compound, and the number of mice gripping the wire with hindpaws within 10 sec was counted. The ED50 was calculated by the probit method.

The mark [6] stands for this setting: oral, mice, 30 minutes after administration, gripping within 10 sec, probit.

Like-named read-outs stand apart in the source and are kept apart here.

Turning to `Clc1ccc(-c2nc3cnc4ccccc4c3[nH]2)s1` [Compound C2], the Ki in assay [1] is 0.97 nM. For the same compound, in assay [2], the ED50 was found to be 16 mg/kg.
As to `Fc1ccc(-c2nc3cnc4ccccc4c3[nH]2)cc1` [Compound C3, 2-(4-fluorophenyl)-1H-imidazo[4,5-c]quinoline], in assay [1], the Ki was 15.8 nM. Besides, in assay [2], the ED50 was 2.31 mg/kg.
The like results for `COc1ccc(-c2nc3cnc4ccccc4c3[nH]2)cc1` [Compound C13] were, in that order, 8.73 nM and 4.61 mg/kg.
In the case of `Fc1cccc(-c2nc3cnc4ccccc4c3[nH]2)c1` [Compound C20], the Ki in assay [1] is 27.7 nM. The ED50 in assay [2] is 3.9 mg/kg.
As to `Fc1ccccc1-c1nc2cnc3ccccc3c2[nH]1` [Compound C21], the Ki in assay [1] is 1.8 nM. The ED50 in assay [2] was determined as 2.05 mg/kg.
`Clc1ccc2c(c1)ncc1nc(-c3cccs3)[nH]c12` [Compound C35]: the ED50 in assay [3] came out at 1.76 mg/kg. The Ki in assay [1] was 19.5 nM.
With `Cc1csc(-c2nc3cnc4cc(Cl)ccc4c3[nH]2)c1` [Compound C38], the inhibition constant Ki in assay [1] is 15.6 nM. In assay [2], the ED50 stood at 8.52 mg/kg.
With `Cc1cc(-c2nc3cnc4ccccc4c3[nH]2)on1` [Compound C45, 2-(3-methylisoxazol-5-yl)-1H-imidazo[4,5-c]quinoline], in assay [1], the Ki is 0.582 nM. Also, the ED50 in assay [4] is 2.68 mg/kg; in assay [2], 0.71 mg/kg; in assay [5] (setting [6]), above 200 mg/kg.
Regarding `CCc1cc(-c2nc3cnc4ccccc4c3[nH]2)on1` [Compound C46], the inhibition constant (Ki) in assay [1] is 0.97 nM. For the same compound, the ED50 in assay [2] stood at 1.2 mg/kg.
Take `Cc1cc(-c2nc3cnc4cc(F)ccc4c3[nH]2)on1` [Compound C48]: the Ki in assay [1] is 0.907 nM. For the same compound, the ED50 is 1.8 mg/kg in assay [4], 0.59 mg/kg in assay [2] and above 200 mg/kg in assay [5] (setting [6]).
On to `Cc1cc(-c2nc3cnc4ccc(F)cc4c3[nH]2)on1` [Compound C49], for which, in assay [1], the Ki is 0.237 nM. Further, the ED50 was 1.19 mg/kg in assay [4], 0.32 mg/kg in assay [2] and above 200 mg/kg in assay [5] (setting [6]).
Regarding `c1ccc2c(c1)ncc1nc(-c3ccon3)[nH]c12` [Compound C58], the ED50 in assay [3] is 1.65 mg/kg. Moreover, the Ki in assay [1] is 0.525 nM.
For `Clc1ccc2c(c1)ncc1nc(-c3ccon3)[nH]c12` [Compound C59], in assay [1], the Ki is 1.23 nM. In assay [2], the 50% effective dose (ED50) turned out to be 3.01 mg/kg.
On to `Fc1ccc2c(c1)ncc1nc(-c3ccon3)[nH]c12` [Compound C60], for which the Ki in assay [1] is 0.495 nM.
Regarding `Cc1cc(-c2nc3cnc4ccccc4c3[nH]2)no1` [Compound C61], the Ki in assay [1] is 0.661 nM. The ED50 in assay [2] came to 0.74 mg/kg.
With `Cc1cc(-c2nc3cnc4ccccc4c3[nH]2)ns1` [Compound C67], the Ki in assay [1] is 2.07 nM.
For `Cc1cc(-c2nc3cnc4ccccc4c3[nH]2)sn1` [Compound C68], in assay [1], the Ki was 1.19 nM.
As for `c1ccc2c(c1)ncc1nc(-c3cnns3)[nH]c12` [Compound C70], the Ki in assay [1] is 5.4 nM.
`Cc1csc(-c2nc3cnc4ccccc4c3[nH]2)n1` [Compound C71]: the ED50 in assay [3] was found to be 4.18 mg/kg. Also, in assay [1], the inhibitory constant (Ki) is 4.57 nM.
In the case of `Cc1cc2c(ncc3nc(-c4cccs4)[nH]c32)s1` [Compound F2, 2-(Thien-2-yl)-7-methyl-1H-imidazo[4,5-d]thieno[2,3-b]pyridine], the ED50 in assay [3] is 0.13 mg/kg. In addition, the Ki in assay [1] is 31.8 nM.
In the case of `c1csc(-c2nc3cnc4sccc4c3[nH]2)c1` [Compound F7], the ED50 in assay [3] was found to be 0.5 mg/kg. The inhibition constant (Ki) in assay [1] was 725 nM.
The like results for `c1csc(-c2nc3cnc4ccsc4c3[nH]2)c1` [Compound K5] were, in that order, 0.54 mg/kg and 10.1 nM.
For the compound `CN1C(=O)CN=C(c2ccccc2)c2cc(Cl)ccc21` [Diazepam, reference compound], the values for the ED50 in assay [4] and in assay [5] (po) were 1.05 mg/kg and 5.06 mg/kg, respectively.
